According to US20250171459A1, “2-METHYL-4',5'-DIHYDROSPIRO[PIPERIDINE-4,7'-THIENO[2,3-C]PYRAN] DERIVATIVES AS INHIBITORS OF APOL1 AND METHODS OF USING SAME” (Vertex Pharmaceuticals Incorporated, priority 2022, published 2025):

These compounds were tested against T1, APOL1 (Homo sapiens, UniProt O14791) (assay: MultiTox-Fluor Multiplex Cytotoxicity Assay in tet-inducible APOL1 T-REx-HEK293 cells (cell rescue, ratio of dead to live cells)). Conditions: tet-inducible transgenic APOL1 T-REx-HEK293 cell lines, 50 ng/mL tet, 24 hours; read-out: IP50 (i.e., IC50 for cell proliferation).
T1 sequence (O14791 1-398 S342G/I384M): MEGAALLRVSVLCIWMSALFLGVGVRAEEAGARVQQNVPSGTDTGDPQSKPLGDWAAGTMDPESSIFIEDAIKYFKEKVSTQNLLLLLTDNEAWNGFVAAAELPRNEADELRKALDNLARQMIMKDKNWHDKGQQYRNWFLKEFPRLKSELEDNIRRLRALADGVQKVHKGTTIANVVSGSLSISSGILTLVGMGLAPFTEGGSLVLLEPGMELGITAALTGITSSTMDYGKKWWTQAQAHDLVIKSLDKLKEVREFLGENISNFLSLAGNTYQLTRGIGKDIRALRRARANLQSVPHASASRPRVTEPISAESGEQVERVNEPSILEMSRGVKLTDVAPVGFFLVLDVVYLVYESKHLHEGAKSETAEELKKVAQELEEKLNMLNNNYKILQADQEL
Assay type: cell-based
Source text: The MultiTox-Fluor Multiplex Cytotoxicity Assay is a single-reagent-addition, homogeneous, fluorescence assay that measures the number of live and dead cells simultaneously in culture wells. The assay measures cell viability and cytotoxicity by detecting two distinct protease activities. […] The substrate enters intact cells, where it is cleaved to generate a fluorescent signal proportional to the number of living cells. […] A ratio of dead to live cells is used to normalize data.
The MultiTox reagent was added to each well and placed back in the incubator for an additional 30 minutes. The plate was read on the EnVision plate reader. A ratio of dead to live cells was used to normalize, and data was imported, analyzed, and fit using Genedata Screener (Basel, Switzerland) software. Data was normalized using percent of control, no tet (100% viability), and 50 ng/mL tet treated (0% viability), and fit using Smart Fit. The reagents, methods, and complete protocol for the MultiTox assay are described below.
Cells were washed with DPBS and then trypsinized to dissociate from the flask. Media was used to quench the trypsin, cells were then pelleted at 200 g and resuspended in fresh cell assay media (DMEM, 2% Tet-free FBS, 2 mM L-glutamine, 100 Units/mL penicillin-streptomycin). […] The plates were then incubated at room temperature for one hour.
Tetracycline is needed to induce APOL1 expression. 1 mg/mL tet stock in water was diluted to 250 ng/mL (5×) in cell assay media.
Compounds were dispensed at 200 nL in DMSO. The final top concentration was 10 μM with a 10 point 3-fold dilution in duplicate in the MultiTox assay.
20 μL was transferred from the 5× tet plate to the ARP and mixed, then 5 μL of 5× tet and the compounds were transferred to the cell plate and mixed using the Bravo. The cell plate was placed in the humidified 37° C. 5% CO2 incubator for 24 hours.
The MultiTox-Fluor Multiplex Cytotoxicity Assay was performed in accordance with the manufacturer's protocol. After cells were incubated with tet and compound for 24 hours, 25 μL of 1× MultiTox reagent was added to each well using the Multidrop dispenser; the plates were placed on a plate shaker (600 rpm) for 2 minutes, then centrifuged briefly and placed back in the 37° C. incubator for 30 minutes. The cell viability (excitation: 400 nm, emission: 486 nm) and cytotoxicity (excitation: 485 nm, emission: 535 nm) were read using the EnVision plate reader. A ratio of dead (cytotoxicity) to live (viability) cells was reported. Data was exported and analyzed in Genedata. Data was normalized using percent of control, no tet (100% viability), and 50 ng/mL tet treated (0% viability), and fit using Smart Fit settings in Genedata.

SMILES | IC50 [µM]
CCc1cc2c(s1)CCO[C@@]21CCN(CC2CN(C(=O)[C@H](C)NC(C)=O)C2)[C@@H](C)C1 [Compound 481] | 0.1 to 0.5
CCc1cc2c(s1)CCO[C@@]21CCN(Cc2cn(Cc3nnc(C)o3)nn2)[C@@H](C)C1 [Compound 176] | 0.1 to 0.5
CCc1cc2c(s1)CCOC21CCN(Cc2cnc(NCCn3cccn3)nc2)CC1 [Compound 1078] | 0.1 to 0.5
CC(C)C1Cc2sc(Cl)cc2C2(CCN(Cc3cnn(C)c3)[C@@H](C)C2)O1 (stereo partly drawn) [Compound 532] | 0.1 to 0.5
CCc1cc2c(s1)CCOC21CCN(Cc2csc(C(F)(F)F)n2)CC1 [Compound 1147] | 0.5 to 1
C[C@H]1C[C@@]2(CCN1Cc1cccc(OCCO)c1)OCCc1cc(Cl)sc12 [Compound 646] | < 0.1
CCc1cc2c(s1)CCO[C@@]21CCN(Cc2cn(C3CN(C(=O)OC(C)(C)C)C3)nn2)[C@@H](C)C1 [Compound 21] | < 0.1
CCc1cc2c(s1)CCO[C@@]21CCN(CC2CN(C(=O)c3cnn(C)c3)C2)[C@@H](C)C1 [Compound 429] | < 0.1
Cc1sc2c(c1C)[C@]1(CCN(Cc3cnn(C)c3)[C@@H](C)C1)OCC2 [Compound 519, (2′S,4R)-2,2′,3-trimethyl-1′-[(1-methylpyrazol-4-yl)methyl]spiro[6,7-dihydrothieno[3,2-c]pyran-4,4′-piperidine]] | < 0.1
CCc1cc2c(s1)CCO[C@@]21CCN(CC2CN(C(=O)c3ccnn3C)C2)[C@@H](C)C1 [Compound 427] | < 0.1
CCc1cc2c(s1)C(C)COC21CCN(Cc2cn(CCS(C)(=O)=O)nn2)[C@@H](C)C1 (stereo partly drawn) [Compound 537] | < 0.1
CCc1cc2c(s1)CCO[C@@]21CCN(C[C@H]2C[C@@H](NC(=O)CC3(O)CCCCC3)C2)[C@@H](C)C1 [Compound 303] | < 0.1
Cc1cc2c(s1)CCO[C@@]21CCN(C2COCC2O)[C@@H](C)C1 (single isomer, unassigned) [Compound 499] | < 0.1
C[C@H]1C[C@@]2(CCN1Cc1cccc(Cl)c1O)OCCc1cc(Cl)sc12 [Compound 690] | 0.5 to 1
CCc1cc2c(s1)CCO[C@@]21CCN(C[C@H]2C[C@@H](NC(=O)C3CCc4ccccc4O3)C2)[C@H](C)C1 (stereo in doubt) [Compound 332] | 0.1 to 0.5
CCc1cc2c(s1)CCOC21CCN(Cc2cn(CC(CO)C(C)C)nn2)C(C)C1 (stereo not drawn) [Compound 107] | < 0.1
CCc1cc2c(s1)CCO[C@@]21CCN(Cc2cn(CCOCCOCCO)nn2)[C@@H](C)C1 [Compound 195] | 0.1 to 0.5
CCc1cc2c(s1)CCOC21CCN(Cc2ccc(OC)nc2)CC1 [Compound 1157] | 0.1 to 0.5
CCc1cc2c(s1)CCO[C@@]21CCN(Cc2cn(CC(C)COC)nn2)[C@@H](C)C1 (stereo partly drawn) [Compound 108] | 0.1 to 0.5
COc1ccc(CN2CC[C@]3(C[C@@H]2C)OC[C@H](O)c2cc(Cl)sc23)cn1 [Compound 804] | < 0.1
C[C@H]1C[C@@]2(CCN1Cc1cnn(CC(O)C3(O)CCOC3)c1)OCCc1c2sc(C(F)(F)F)c1CO (stereo partly drawn) [Compound 941] | < 0.1
CCc1cc2c(s1)CCOC21CCN(Cc2cn(C[C@H]3CC[C@@H](CO)O3)nn2)CC1 [Compound 1110] | 0.5 to 1
CCc1cc2c(s1)CCO[C@@]21CCN(Cc2cn(CC3(S(C)(=O)=O)CC3)nn2)[C@@H](C)C1 [Compound 156] | < 0.1
CCc1cc2c(s1)CCO[C@@]21CCN(Cc2cn(CC3CS(=O)(=O)CCO3)nn2)[C@@H](C)C1 (stereo partly drawn) [Compound 96] | < 0.1

SMILES | IC50 [µM]
C[C@H]1C[C@@]2(CCN1Cc1ccon1)OCCc1cc(CC(F)F)sc12 [Compound 579] | < 0.1
CCc1cc2c(s1)CCO[C@@]21CCN(Cc2cn(CS(C)(=O)=O)nn2)[C@@H](C)C1 [Compound 13, (2′S)-2-ethyl-2′-methyl-1′-[[1-(methylsulfonylmethyl)triazol-4-yl]methyl]spiro[6,7-dihydrothieno[3,2-c]pyran-4,4′-piperidine]] | < 0.1
CC1COC2(CCN(Cc3cn(CCS(C)(=O)=O)nn3)[C@@H](C)C2)c2cc(C(F)(F)F)sc21 (stereo partly drawn) [Compound 541] | < 0.1
C[C@H]1C[C@@]2(CCN1Cc1cnn(CCS(C)(=O)=O)c1)OCCc1cc(CO)sc12 [Compound 1016, [(2′S,7R)-2′-methyl-1′-[[1-(2-methylsulfonylethyl)pyrazol-4-yl]methyl]spiro[4,5-dihydrothieno[2,3-c]pyran-7,4′-piperidine]-2-yl]methanol] | 0.1 to 0.5
CCc1cc2c(s1)CCOC21CCN(Cc2cnc(NC3CC3OC)nc2)CC1 (stereo not drawn) [Compound 1076] | 0.1 to 0.5
C[C@H]1C[C@@]2(CCN1Cc1cnn(CC(O)CC(C)(C)O)c1)OC[C@@H](O)c1cc(C(F)(F)F)sc12 (stereo partly drawn) [Compound 977] | < 0.1
COCCC(O)Cn1cc(CN2CC[C@]3(C[C@@H]2C)OCCc2c3sc(C(F)(F)F)c2CO)cn1 (stereo partly drawn) [Compound 967] | < 0.1
C[C@H]1C[C@@]2(CCN1Cc1cnn(CC(O)C3(CO)CCC3)c1)OCCc1c2sc(C(F)(F)F)c1CO (stereo partly drawn) [Compound 935] | < 0.1
CCc1cc2c(s1)CCO[C@@]21CCN(CC2CN(C(=O)[C@@H](C)NS(C)(=O)=O)C2)[C@@H](C)C1 [Compound 473] | 0.1 to 0.5
CCc1cc2c(s1)CCO[C@@]21CCN(Cc2cn(CC(O)c3nccn3C)nn2)[C@@H](C)C1 (stereo partly drawn) [Compound 69] | < 0.1
CCc1cc2c(s1)CCOC21CCN(Cc2ccc(C(=O)Nc3ccnn3C)nc2)CC1 [Compound 1052] | < 0.1
C[C@H]1C[C@@]2(CCN1Cc1cccc(Cl)c1O)OCCc1c2sc(Cl)c1CO [Compound 712, 2-chloro-6-[[(2′S, 7R)-2-chloro-3-(hydroxymethyl)-2′-methyl-spiro[4,5-dihydrothieno[2,3-c]pyran-7,4′-piperidine]-1′-yl]methyl]phenol] | 0.5 to 1
CCc1cc2c(s1)CCO[C@@]21CCN(Cc2cn(CCS(=O)(=O)C(C)C)nn2)[C@@H](C)C1 [Compound 160] | < 0.1
CCc1cc2c(s1)CCO[C@@]21CCN(CCC(F)(F)F)[C@@H](C)C1 [Compound 275] | 0.5 to 1
CCc1cc2c(s1)CCO[C@@]21CCN(Cc2cnc(NC(CO)CO)nc2)[C@@H](C)C1 [Compound 222] | < 0.1
Cc1cccc(CN2CC[C@]3(C[C@@H]2C)OCCc2cc(Cl)sc23)n1 [Compound 680] | 0.5 to 1
CCc1cc2c(s1)CCO[C@@]21CCN(Cc2cn(CC3(C)CCOCC3)nn2)[C@@H](C)C1 [Compound 114] | 0.1 to 0.5
CCc1cc2c(s1)CCO[C@@]21CCN(Cc2cn(CCNC(=O)c3cnc(C)cn3)nn2)[C@@H](C)C1 [Compound 50] | < 0.1
CCc1cc2c(s1)CCO[C@@]21CCN(Cc2cn(CCS(=O)(=O)c3ccccc3)nn2)[C@@H](C)C1 [Compound 26] | < 0.1
CCc1cc2c(s1)CCO[C@@]21CCN(C[C@H]2C[C@@H](NC(=O)CC(C)(C)O)C2)[C@@H](C)C1 [Compound 346] | < 0.1
CCc1cc2c(s1)CCOC21CCN(Cc2ccc(NS(=O)(=O)C3CC3)nc2)CC1 [Compound 1069] | 0.1 to 0.5
CCc1cc2c(s1)CCOC21CCN(Cc2ccc(C(=O)Nc3ccn(C)n3)nc2)CC1 [Compound 1051] | < 0.1
CCc1cc2c(s1)CCO[C@@]21CCN(C[C@H]2C[C@@H](NC(=O)C3CC3c3ccc(F)cc3)C2)[C@@H](C)C1 (stereo partly drawn) [Compound 323] | < 0.1
CCc1cc2c(s1)CCO[C@@]21CCN(Cc2cn([C@H]3C[C@@H](OC)C3)nn2)[C@@H](C)C1 [Compound 145] | < 0.1
